In patent US20170118998A1, “PESTICIDAL COMPOSITIONS AND METHODS FOR USING SAME” (priority 1998, published 2017):

Experiments:
Assay type in all cases: in vivo
[1] = system: American cockroaches; test: Direct spray toxicity of rosemary oil, wintergreen oil and their blend (Example 1); conditions: sprayed with approximately 3.7 grams; one value per insect
Method: Studies were conducted to evaluate the individual toxicity, in terms of speed of action and mortality, of rosemary oil and wintergreen oil against American cockroaches, and then a blend of these two oils to determine if similar toxic effects could be obtained using a proprietary blend that was less expensive to produce and easier to employ in different end-use formulations. Methyl salicylate was used as wintergreen oil. American cockroaches were confined under a screened cap and then sprayed with approximately 3.7 grams of each test chemical using a trigger sprayer. Immediately after spraying, the insects were released into a large plastic container and observed for signs of toxicity. Three American cockroaches were used in each experiment. The times for immobilization (IM), knockdown (KD), and mortality were recorded for each test insect. An untreated control was provided.

[2] = target: American cockroaches; test: Test chemical applied directly to thorax of insect using Pasteur Pipette (Table 12); conditions: 1 drop applied directly to thorax; one value per insect
[3] = system: Melon Aphids Aphis gossypii; test: Melon Aphids on squash (Table 11); conditions: 1 qt/acre, applied three times at one week interval
Method: A formulation (DR-A-034) consisting of 5% w/w rosemary oil, 22.5% w/w wintergreen oil, 22.5% w/w mineral oil, 0.5% w/w lecithin (emulsifier), and 49.5% w/w water was prepared and labeled Hexacide™. Hexacide™ was applied in dilute form at different rates per acre to the pests itemized below in various greenhouse and field studies. In all of these studies, positive controls consisting of conventional pesticides were utilized for comparative efficacy.
Randomized complete block design was used. Five replicates per treatment were performed. 100 gallons spray volume per acre (GPA). Latron CS-7 at 4 ml/gallon was added to all treatments. All foliar applied pesticidal compositions applied, except Admire and Platinum (soil insecticides). HEXACIDE™ Azadiractin and Pyganic applied three times at one week interval. Other products applied once.

| Compound | IM (time for immobilization) [1] [s] | Mortality (time) [1] [min] | KD (knockdown time) [2] | Mortality (time) [2] [m] | Mean % Aphids per Leaf ([3]; 6 DAT) [c %] | Mean % Aphids per Leaf ([3]; 12 DAT) [c %] | Mean % Aphids per Leaf ([3]; Pretreatment) [b %] |
| --- | --- | --- | --- | --- | --- | --- | --- |
| COC(=O)c1ccccc1O [100% Methyl Salicylate, Methyl salicylate] | 45 | >2 | no KD | >5 | – | – | – |
| C/C=C(\C)C(=O)O[C@H]1C[C@@H](OC(C)=O)[C@@]2(C(=O)OC)CO[C@H]3[C@@H](O)[C@@](C)([C@]45O[C@@]4(C)[C@H]4C[C@@H]5O[C@@H]5OC=C[C@@]54O)[C@H]4[C@]1(CO[C@]4(O)C(=O)OC)[C@@H]32 [Azadiractin] | – | – | – | – | 5.4 | 15.1 | 3.9 |
